How the values were obtained:
Type in all cases: cell-based
Conditions in all cases: for SI / Qa: A = MIT; for Qa: A alone where Qb = 0
[1] = tested on: Escherichia coli (E. coli—ATCC #8739); assay: Synergy test, microtiter plate high resolution MIC assay, M9GY medium, bacterium
From the text: (§1) One measure of synergism is the industrially accepted method described by Kull, F. C.; Eisman, P. C.; Sylwestrowicz, H. D. and Mayer, R. L., in Applied Microbiology 9:538-541 (1961), using the ratio determined by the formula: Qa/QA+Qb/QB=Synergy Index(“SI”) wherein: • QA=concentration of compound A (first component) in ppm, acting alone, which produced an end point (MIC of Compound A). • Qa=concentration of compound A in ppm, in the mixture, which produced an end point. • QB=concentration of compound B (second component) in ppm, acting alone, which produced an end point (MIC of Compound B). • Qb=concentration of compound B in ppm, in the mixture, which produced an end point.
(§2) When the sum of Qa/QA and Qb/QB is greater than one, antagonism is indicated. […] The lower the SI, the greater is the synergy shown by that particular mixture. The minimum inhibitory concentration (MIC) of a microbicide is the lowest concentration tested under a specific set of conditions that prevents the growth of the tested microorganisms.
(§3) Synergy tests were conducted using standard microtiter plate assays with media designed for optimal growth of the test microorganism. Minimal salt medium supplemented with 0.2% glucose and 0.1% yeast extract (M9GY medium) was used for testing bacteria; Potato Dextrose Broth (PDB medium) was used for testing yeast and mold. In this method, a wide range of combinations of microbicides and other personal care raw materials was tested by conducting high resolution MIC assays in the presence of various concentrations of CMIT/MIT, MIT, or BIT. High resolution MICs were determined by adding varying amounts of microbicide to one column of a microtitre plate and doing subsequent […] dilutions using an automated liquid handling system to obtain a series of endpoints ranging from 2 ppm to 10,000 ppm active ingredient.
(§4) The synergy of the combinations of the present invention was determined against a bacterium, Escherichia coli (E. coli—ATCC #8739), a yeast, Candida albicans (C. albicans—ATCC 10231), and a mold, Aspergillus niger (A. niger—ATCC 16404). The bacteria were used at a concentration of about 5×10^6 bacteria per mL and the yeast and mold at 5×10^5 fungi per mL. These microorganisms are representative of natural contaminants in many consumer and industrial applications. […] (yeast and mold) or 30° C. (bacteria).

[2] = tested on: Candida albicans (C. albicans—ATCC 10231); assay: Synergy test, microtiter plate high resolution MIC assay, PDB medium, yeast
From the text: as §1, §2, §3, §4

[3] = tested on: Aspergillus niger (A. niger—ATCC 16404); assay: Synergy test, microtiter plate high resolution MIC assay, PDB medium, mold
From the text: as §1, §2, §3, §4

[4] = E. coli 8739 - M9GY (1 day), B = Glyceryl caprate
[5] = E. coli 8739 - M9GY (1 day), B = Glyceryl mono dicaprylate
[6] = E. coli 8739 - M9GY (1 day), B = Lauric arginate
[7] = E. coli 8739 - M9GY (1 day), B = Myristamidopropyl PG-dimonium chloride phosphate
[8] = E. coli 8739 - M9GY (1 day), B = Propylene glycol caprylate
[9] = E. coli 8739 - M9GY (1 day), B = Propylene glycol monolaurate
[10] = E. coli 8739 - M9GY (6 days), B = Ethylhexylglycerin
[11] = C. albicans 10231 - PDB (1 day), B = Propylene glycol monolaurate
[12] = C. albicans 10231 - PDB (2 days), B = Glyceryl mono dicaprylate
[13] = C. albicans 10231 - PDB (6 days), B = Ethylhexylglycerin
[14] = C. albicans 10231 - PDB (6 days), B = Glyceryl caprate
[15] = C. albicans 10231 - PDB (6 days), B = Lauric arginate
[16] = C. albicans 10231 - PDB (6 days), B = Myristamidopropyl PG-dimonium chloride phosphate
[17] = C. albicans 10231 - PDB (6 days), B = Propylene glycol caprylate
[18] = A. niger 16404 - PDB (3 days), B = Myristamidopropyl PG-dimonium chloride phosphate
[19] = A. niger 16404 - PDB (3 days), B = Propylene glycol caprylate
[20] = A. niger 16404 - PDB (10 days), B = Ethylhexylglycerin
[21] = A. niger 16404 - PDB (10 days), B = Glyceryl caprate
[22] = A. niger 16404 - PDB (10 days), B = Glyceryl mono dicaprylate
[23] = A. niger 16404 - PDB (10 days), B = Lauric arginate
[24] = A. niger 16404 - PDB (10 days), B = Propylene glycol monolaurate

SMILES: Cn1sccc1=O [MIT, 2-methyl-4-isothiazolin-3-one]
- Synergy Index (SI) = Qa/QA+Qb/QB ([1]; E. coli 8739, M9GY, 1 day): 1.00
- MIC of the component acting alone (QA or QB) ([1]; E. coli 8739, M9GY, 1 day, 30° C.): 30.00 ppm
- SI [1, 4]: 1.00
- Qa [1, 4]: 30.00 ppm
- SI [1, 5]: 1.00
- Qa [1, 5]: 30.00 ppm
- SI [1, 6]: 1.00
- Qa [1, 6]: 30.00 ppm
- SI [1, 7]: 1.00
- Qa [1, 7]: 30.00 ppm
- SI [1, 8]: 1.00
- Qa [1, 8]: 30.00 ppm
- SI [1, 9]: 1.00
- Qa [1, 9]: 30.00 ppm
- SI [1, 10]: 1.00
- Qa [1, 10]: 40.00 ppm
- MIC ([1]; Escherichia coli, ATCC8739, 24 h, read-out: MIC of the component acting alone (QA or QB)): 30 µg/mL
- Synergy Index (SI) = Qa/QA+Qb/QB ([2]; C. albicans 10231, PDB, 6 days): 1.00
- MIC of the component acting alone (QA or QB) ([2]; C. albicans 10231, PDB, 6 days, 25° C.): 200.00 ppm
- SI [2, 11]: 1.00
- Qa [2, 11]: 100.00 ppm
- SI [2, 12]: 1.00
- Qa [2, 12]: 150.00 ppm
- SI [2, 13]: 1.00
- Qa [2, 13]: 200.00 ppm
- SI [2, 14]: 1.00
- Qa [2, 14]: 200.00 ppm
- SI [2, 15]: 1.00
- Qa [2, 15]: 200.00 ppm
- SI [2, 16]: 1.00
- Qa [2, 16]: 200.00 ppm
- SI [2, 17]: 1.00
- Qa [2, 17]: 200.00 ppm
- MIC ([2]; Candida albicans, ATCC10231, 144 h, read-out: MIC of the component acting alone (QA or QB)): 200 µg/mL
- Synergy Index (SI) = Qa/QA+Qb/QB ([3]; A. niger 16404, PDB, 10 days): 1.00
- MIC of the component acting alone (QA or QB) ([3]; A. niger 16404, PDB, 10 days, 25° C.): 500.00 ppm
- SI [3, 18]: 1.00
- Qa [3, 18]: 400 ppm
- SI [3, 19]: 1.00
- Qa [3, 19]: 400 ppm
- SI [3, 20]: 1.00
- Qa [3, 20]: 750 ppm
- SI [3, 21]: 1.00
- Qa [3, 21]: 500 ppm
- SI [3, 22]: 1.00
- Qa [3, 22]: 500 ppm
- SI [3, 23]: 1.00
- Qa [3, 23]: 750 ppm
- SI [3, 24]: 1.00
- Qa [3, 24]: 750.00 ppm
- MIC ([3]; Aspergillus niger, ATCC16404, 240 h, read-out: MIC of the component acting alone (QA or QB)): 500 µg/mL
